Measured values from patent US20240033234A1, “THERAPEUTIC COMPOUNDS, FORMULATIONS, AND USE THEREOF” (Tvardi Therapeutics, Inc., priority 2022, published 2024).

Experiment: 3-Month stability data for TTI-101 Batches B, C, D and E stored at 40° C./75% RH
Format: physicochemical
Experimental: Exemplary HPLC conditions: diluent was 0.1% trifluoroacetic acid (TFA) in acetonitrile, Mobile Phase A was 0.05% TFA in water, and Mobile Phase B was 0.05% TFA in acetonitrile, column (Agilent, Eclipse XDB-C18, 3.0×100 mm, particle size 1.8 μm), flow (0.425 mL/min), and detector (280 nm diode array).
Batches B, C, and D were prepared according to Method 5, Method 4, and Method 3, respectively, as described in Example 1. Batch E was prepared analogously using according to Method 1 as described in Example 1.
Samples of TTI-101 (Batches B, C, D, and E) were stored at 40° C./75% RH for 3 months. The batches were individually stored in an low density polyethylene (LDPE) bag enclosed with a Nylon cable tie and then transferred to another LDPE bag and enclosed with a Nylon cable tie. The enclosure was put into a high density polyethylene (HDPE) bottle and closed with a polyethylene-lined polypropylene cap. For Batch B only, another sample was enclosed in a screw-top amber glass bottle and closed with a cap. The samples were stored under the above-identified conditions.

COc1ccc(S(=O)(=O)Nc2cc(-c3c(O)ccc4ccccc34)c(O)c3ccccc23)cc1 [TTI-101]
Impurity RRT 0.84, Area % (0 M): NQ (≥0.02% and <0.05%) | Impurity RRT 0.87, Area % (0 M): NQ (≥0.02% and <0.05%) | Impurity RRT 1.06 (Cmp 4), Area % (0 M): NQ (≥0.02% and <0.05%) | Impurities Total, Area % (0 M, listed as Batch C): 0.4 Area % | Impurity RRT 0.99, Area % (0 M, listed as Batch C): 0.06 Area % | Impurity RRT 1.16 (Cmp 6), Area % (0 M, listed as Batch C): 0.31 Area % | Impurities Total, Area % (0 M, listed as Batch D): 0.1 Area % | Impurity RRT 1.16 (Cmp 6), Area % (0 M, listed as Batch D): 0.10 Area % | Impurities Total, Area % (0 M, listed as Batch E): 0.1 Area % | Impurity RRT 1.16 (Cmp 6), Area % (0 M, listed as Batch E): 0.10 Area % | Impurities Total, Area % (1 M, listed as Batch C): 0.1 Area % | Impurity RRT 0.99, Area % (1 M, listed as Batch C): NQ (≥0.02% and <0.05%) | Impurity RRT 1.17 (Cmp 6), Area % (1 M, listed as Batch C): 0.12 Area % | Impurities Total, Area % (1 M, listed as Batch D): 0.1 Area % | Impurity RRT 1.17 (Cmp 6), Area % (1 M, listed as Batch D): 0.09 Area % | Impurities Total, Area % (1 M, listed as Batch E): 0.1 Area % | Impurity RRT 0.99, Area % (1 M, listed as Batch E): NQ (≥0.02% and <0.05%) | Impurity RRT 1.17 (Cmp 6), Area % (1 M, listed as Batch E): 0.09 Area % | Impurity RRT 0.99, Area % (2 M): NQ (≥0.02% and <0.05%) | Impurity RRT 1.06 (Cmp 4), Area % (2 M): NQ (≥0.02% and <0.05%) | Impurities Total, Area % (2 M, listed as Batch C): 0.1 Area % | Impurity RRT 1.17 (Cmp 6), Area % (2 M, listed as Batch C): 0.13 Area % | Impurities Total, Area % (2 M, listed as Batch D): 0.1 Area % | Impurity RRT 1.17 (Cmp 6), Area % (2 M, listed as Batch D): 0.09 Area % | Impurities Total, Area % (2 M, listed as Batch E): 0.1 Area % | Impurity RRT 1.17 (Cmp 6), Area % (2 M, listed as Batch E): 0.09 Area % | Impurity RRT 0.95, Area % (3 M): NQ (≥0.02% and <0.05%) | Impurity RRT 0.98, Area % (3 M): NQ (≥0.02% and <0.05%) | Impurity RRT 1.06 (Cmp 4), Area % (3 M): NQ (≥0.02% and <0.05%) | Impurities Total, Area % (3 M, listed as Batch C): 0.3 Area % | Impurity RRT 1.16 (Cmp 6), Area % (3 M, listed as Batch C): 0.31 Area % | Impurities Total, Area % (3 M, listed as Batch D): 0.1 Area % | Impurity RRT 1.16 (Cmp 6), Area % (3 M, listed as Batch D): 0.11 Area % | Impurities Total, Area % (3 M, listed as Batch E): 0.2 Area % | Impurity RRT 1.16 (Cmp 6), Area % (3 M, listed as Batch E): 0.16 Area % | Purity (%) (T = 0 month (0 M), listed as Batch C): 99.6% | Purity (%) (T = 0 month (0 M), listed as Batch D): 99.9% | Purity (%) (T = 0 month (0 M), listed as Batch E): 99.9% | Purity (%) (T = 1 month (1 M), listed as Batch C): 99.8% | Purity (%) (T = 1 month (1 M), listed as Batch D): 99.9% | Purity (%) (T = 1 month (1 M), listed as Batch E): 99.9% | Purity (%) (T = 2 months (2 M), listed as Batch C): 99.8% | Purity (%) (T = 2 months (2 M), listed as Batch D): 99.9% | Purity (%) (T = 2 months (2 M), listed as Batch E): 99.9% | Purity (%) (T = 3 months (3 M), listed as Batch C): 99.6% | Purity (%) (T = 3 months (3 M), listed as Batch D): 99.9% | Purity (%) (T = 3 months (3 M), listed as Batch E): 99.8%
